The target of test [1] is T1, human recombinant serotonin (5-Hydroxytryptamine) 5-HT2C receptor (Homo sapiens, UniProt P28335).
T1 construct: expressed in transfected cells; host or cells: CHO-K1
T1 sequence (P28335 33-458): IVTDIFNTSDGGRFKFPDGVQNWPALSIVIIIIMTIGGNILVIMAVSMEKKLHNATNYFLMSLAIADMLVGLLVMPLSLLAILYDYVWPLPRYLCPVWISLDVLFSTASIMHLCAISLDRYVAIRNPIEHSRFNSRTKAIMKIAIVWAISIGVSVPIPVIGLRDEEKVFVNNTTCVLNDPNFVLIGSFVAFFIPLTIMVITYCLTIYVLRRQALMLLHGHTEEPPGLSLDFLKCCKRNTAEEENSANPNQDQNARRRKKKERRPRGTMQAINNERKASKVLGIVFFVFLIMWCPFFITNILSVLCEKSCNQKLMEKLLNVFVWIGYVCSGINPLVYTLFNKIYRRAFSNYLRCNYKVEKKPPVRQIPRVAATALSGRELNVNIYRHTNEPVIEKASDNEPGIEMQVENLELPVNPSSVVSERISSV
Put plainly: Serotonin 5-HT2C radioligand binding ([3H]Mesulergine). The settings on record: for inhibition at 0.1 µM / Serotonin (0.1 μM) 5-HT2C, percentage inhibition of ligand binding: compound at 0.1 μM; for inhibition at 0.1 µM: read-out: Serotonin (0.1 μM) 5-HT2C, percentage inhibition of ligand binding. Here is the method: To evaluate in radioligand binding assays the activity of compounds of the invention, human recombinant serotonin (5-Hydroxytryptamine) 5-HT2C receptor expressed in Chinese hamster ovary (CHO)-K1 cells (Wolf, W. et al, J. Neurochem. 69:1449, 1997) in a modified Tris-HCl buffer (50 mM Tris-HCl, pH 7.4, 0.1% Ascorbic Acid, 10 μM Pargyline) was used. Compounds of the invention were incubated with 1 nM [^3H]Mesulergine for 60 min. at 25° C. Non-specific binding was estimated in the presence of 1 μM Mianserin. Receptor proteins were filtered and washed, the filters were then counted to determine [^3H]Mesulergine specifically bound. Compounds were screened at 1 μM or lower, using 1% DMSO as vehicle. Biochemical assay results are presented as the percent inhibition of specific binding in Table 4.

In test [2] the target is T2, human recombinant dopamine D2L receptor (Homo sapiens, UniProt P14416).
T2 construct: expressed in transfected cells; host or cells: CHO
As to the kind of experiment: Dopamine D2L radioligand binding ([3H]Spiperone). The settings on record: compound at 1 μM; for inhibition at 1 µM: read-out: Dopamine (1 μM) D2L, percentage inhibition of ligand binding. As for the experimental part: To evaluate in radioligand binding assays the activity of compounds of the invention, human recombinant dopamine D2L receptor expressed in Chinese hamster ovary (CHO) cells (Grandy, D. et al, Proc. Natl. Acad. Sci. USA. 86:9762, 1989; Hayes, G. et al, Mol. Endocrinol. 6:920, 1992) in a modified Tris-HCl buffer (50 mM Tris-HCl, pH 7.4, 1.4 mM Ascorbic Acid, 0.001% BSA, 150 mM NaCl) was used. Compounds of the invention were incubated with 0.16 nM [^3H]Spiperone for 120 min. at 25° C. Non-specific binding was estimated in the presence of 10 μM Haloperidol. Receptor proteins were filtered and washed, the filters were then counted to determine [^3H]Spiperone specifically bound. Compounds were screened at 1 μM or lower, using 1% DMSO as vehicle. Biochemical assay results are presented as the percent inhibition of specific binding in Table 3.

Test [3] deals with T3, human recombinant serotonin (5-Hydroxytryptamine) 5-HT2A receptor (Homo sapiens, UniProt P28223).
T3 construct: expressed in transfected cells; host or cells: CHO-K1
As to the kind of experiment: Serotonin 5-HT2A radioligand binding ([3H]Ketanserin). As to conditions: for inhibition at 0.1 µM / Serotonin (0.1 μM) 5-HT2A, percentage inhibition of ligand binding: compound at 0.1 μM; for inhibition at 0.1 µM: read-out: Serotonin (0.1 μM) 5-HT2A, percentage inhibition of ligand binding. As for the experimental part: To evaluate in radioligand binding assays the activity of compounds of the invention, human recombinant serotonin (5-Hydroxytryptamine) 5-HT2A receptor expressed in Chinese hamster ovary (CHO)-K1 cells (Bonhaus, D. et al, Br. J. Pharmacol. 115:622, 1995; Saucier, C. et al, J. Neurochem. 68:1998, 1997) in a 50 mM Tris-HCl buffer, pH 7.4, was used. Compounds of the invention were incubated with 0.5 nM [^3H]Ketanserin for 60 min. at 25° C. Non-specific binding was estimated in the presence of 1 μM Mianserin. Receptor proteins were filtered and washed, the filters were then counted to determine [^3H]Ketanserin specifically bound. Compounds were screened at 1 μM or lower, using 1% DMSO as vehicle. Biochemical assay results are presented as the percent inhibition of specific binding in Table 4.

Test [4] has as its target T4, rat adrenergic α1A receptor (Rattus norvegicus, UniProt P43140).
T4 construct: rat adrenergic α1A receptor obtained from Wistar Rat submaxillary glands; from tissue; host or cells: Wistar rat submaxillary glands
T4 sequence (P43140 1-466): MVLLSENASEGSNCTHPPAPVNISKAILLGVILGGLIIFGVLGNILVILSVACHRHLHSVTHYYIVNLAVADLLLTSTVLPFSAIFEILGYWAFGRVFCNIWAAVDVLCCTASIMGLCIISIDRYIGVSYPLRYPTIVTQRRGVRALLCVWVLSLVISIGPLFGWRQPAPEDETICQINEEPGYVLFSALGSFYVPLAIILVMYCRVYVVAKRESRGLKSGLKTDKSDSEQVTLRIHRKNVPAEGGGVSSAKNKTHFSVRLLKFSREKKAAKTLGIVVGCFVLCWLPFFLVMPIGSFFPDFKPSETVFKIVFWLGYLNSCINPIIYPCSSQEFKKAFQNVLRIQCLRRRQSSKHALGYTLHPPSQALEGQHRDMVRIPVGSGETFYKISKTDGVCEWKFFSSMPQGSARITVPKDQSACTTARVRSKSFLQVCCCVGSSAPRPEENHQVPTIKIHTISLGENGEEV
As to the kind of experiment: Adrenergic α1A radioligand binding ([3H]Prazosin). The settings on record: compound at 0.1 μM; for inhibition at 0.1 µM: read-out: Adrenergic (0.1 μM) a1A, percentage inhibition of ligand binding. Here is the method:
To evaluate in radioligand binding assays the activity of compounds of the invention, rat adrenergic α1A receptor obtained from Wistar Rat submaxillary glands (Michel, A. et al, Br. J. Pharmacol. 98:883, 1989) in a modified Tris-HCl buffer (50 mM Tris-HCl buffer, pH 7.4, 0.5 mM EDTA) was used. Compounds of the invention were incubated with 0.25 nM [^3H]Prazosin for 60 min. at 25° C. Non-specific binding was estimated in the presence of 10 μM phentolamine. Receptor proteins were filtered and washed, the filters were then counted to determine [^3H]Prazosin specifically bound. Compounds of the invention were screened at 1 μM or lower, using 1% DMSO as vehicle. Biochemical assay results are presented as the percent inhibition of specific binding in Table 3.

Test [5] deals with T5, human recombinant serotonin (5-Hydroxytryptamine) 5-HT5A receptor (Homo sapiens, UniProt P47898).
T5 construct: expressed in transfected cells; host or cells: CHO-K1
Put plainly: Serotonin 5-HT5A radioligand binding ([3H]LSD). The settings on record: compound at 0.1 μM; for inhibition at 0.1 µM: read-out: Serotonin (0.1 μM) 5-HT5A, percentage inhibition of ligand binding. As for the experimental part: To evaluate in radioligand binding assays the activity of compounds of the invention, human recombinant serotonin (5-Hydroxytryptamine) 5-HT5A receptor expressed in Chinese hamster ovary (CHO)-K1 cells (Rees, S. et al, FEBS Lett. 355:242, 1994) in a modified Tris-HCl buffer (50 mM Tris-HCl, pH 7.4, 10 mM MgCl2, 0.5 mM EDTA) was used. Compounds of the invention were incubated with 1.7 nM [^3H]Lysergic acid diethylamide (LSD) for 60 min. at 37° C. Non-specific binding was estimated in the presence of 100 μM Serotonin (5-HT). Receptor proteins were filtered and washed, the filters were counted to determine [^3H]LSD specifically bound. Compounds were screened at 1 μM or lower, using 1% DMSO as vehicle. Biochemical assay results are presented as the percent inhibition of specific binding in Table 4.

The record followed here is patent US9193728B2, “Fused tetracyclic pyrido [4,3-B] indole and pyrido [3,4-B] indole derivatives and methods of use” (Medivation Technologies, Inc., priority 2010, dated 2015).

SMILES strings stand for the structures.

T5 sequence (P47898 whole entry): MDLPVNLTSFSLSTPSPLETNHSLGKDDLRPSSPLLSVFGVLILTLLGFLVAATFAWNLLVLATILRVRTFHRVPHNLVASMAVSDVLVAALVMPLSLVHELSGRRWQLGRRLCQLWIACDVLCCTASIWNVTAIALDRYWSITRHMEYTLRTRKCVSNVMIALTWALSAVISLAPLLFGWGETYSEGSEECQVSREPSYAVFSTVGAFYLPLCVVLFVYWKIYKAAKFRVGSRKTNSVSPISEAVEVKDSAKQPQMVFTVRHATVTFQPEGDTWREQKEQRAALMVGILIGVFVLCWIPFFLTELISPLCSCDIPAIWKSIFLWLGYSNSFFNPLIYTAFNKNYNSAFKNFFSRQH
T2 sequence (P14416 whole entry): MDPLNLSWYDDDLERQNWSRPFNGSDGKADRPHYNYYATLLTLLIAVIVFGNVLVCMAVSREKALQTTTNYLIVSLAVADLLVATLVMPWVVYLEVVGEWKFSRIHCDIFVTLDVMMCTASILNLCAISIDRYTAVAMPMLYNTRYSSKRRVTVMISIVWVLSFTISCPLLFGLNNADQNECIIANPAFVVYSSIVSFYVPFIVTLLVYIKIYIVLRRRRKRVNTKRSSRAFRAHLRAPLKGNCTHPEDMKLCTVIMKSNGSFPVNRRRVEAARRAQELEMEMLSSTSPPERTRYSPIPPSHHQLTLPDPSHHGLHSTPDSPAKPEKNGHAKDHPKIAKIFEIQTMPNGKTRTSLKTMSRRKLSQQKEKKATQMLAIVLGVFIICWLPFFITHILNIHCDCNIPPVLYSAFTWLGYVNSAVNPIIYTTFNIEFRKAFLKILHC
T3 sequence (P28223 whole entry): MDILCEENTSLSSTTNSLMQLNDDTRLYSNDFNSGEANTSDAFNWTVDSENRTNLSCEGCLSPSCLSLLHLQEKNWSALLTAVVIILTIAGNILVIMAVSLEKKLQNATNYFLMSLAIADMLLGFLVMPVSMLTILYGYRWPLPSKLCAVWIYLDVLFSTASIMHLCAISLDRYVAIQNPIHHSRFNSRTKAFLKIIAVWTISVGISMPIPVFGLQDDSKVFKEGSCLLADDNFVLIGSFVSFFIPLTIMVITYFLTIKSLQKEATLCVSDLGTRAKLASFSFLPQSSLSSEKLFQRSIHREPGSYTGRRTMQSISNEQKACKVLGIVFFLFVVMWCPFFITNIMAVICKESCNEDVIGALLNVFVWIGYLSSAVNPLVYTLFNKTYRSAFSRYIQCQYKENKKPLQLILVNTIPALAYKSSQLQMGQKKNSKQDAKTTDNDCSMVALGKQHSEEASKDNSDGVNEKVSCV

`Cc1cc2c3c(c1)c1c(n3CC(c3ccc(F)cc3)C2)CCN(C)C1` (centres unmarked) [Compound 3]: the inhibition at 0.1 µM in test [1] came out at 54%; in test [3] it was 69%. Further, the inhibition at 1 µM was 95% in test [1] (compound at 1 μM, read-out: Serotonin (1 μM) 5-HT2C, percentage inhibition of ligand binding); 96% in test [2]; 94% in test [3] (compound at 1 μM, read-out: Serotonin (1 μM) 5-HT2A, percentage inhibition of ligand binding).
With `Cc1cc2c3c(c1)c1c(n3CC(C)(c3ccc(C)nc3)OC(C)C2)CCN(C)C1` (centres unmarked) [Compound 160], the inhibition at 0.1 µM was -5% in test [4], 2% in test [5], 7% in test [1] and -4% in test [3]. Moreover, in test [2], the inhibition at 1 µM came to 7%.
As to `Cc1cc2c3c(c1)c1c(n3CC(C)(c3ccc(C)nc3)OC2C)CCN(C)C1` (centres unmarked) [Compound 161], in test [4], the “Adrenergic (0.1 μM) a1A, percentage inhibition of ligand binding” value is given as −8%. Moreover, the “Serotonin (0.1 μM) 5-HT5A, percentage inhibition of ligand binding” value in test [5] came out at 4%. In test [1], the “Serotonin (0.1 μM) 5-HT2C, percentage inhibition of ligand binding” value was −4%. For the same compound, the “Dopamine (1 μM) D2L, percentage inhibition of ligand binding” value in test [2] is given as 10%. Further, the “Serotonin (0.1 μM) 5-HT2A, percentage inhibition of ligand binding” value in test [3] was −2%.
As for `Cc1cc2c3c(c1)c1c(n3C[C@@](C)(c3ccncc3)O[C@H]2C)CCN(C)C1` [Compound 162], the inhibition at 0.1 µM in test [4] is -3%; in test [5], 16%; in test [1], 6%; in test [3], 7%. In addition, the inhibition at 1 µM in test [2] is 11%.
As for `Cc1cc2c3c(c1)c1c(n3C[C@](C)(c3ccncc3)O[C@H]2C)CCN(C)C1` [Compound 163], the inhibition at 0.1 µM in test [4] was -17%; in test [5], 10%; in test [1] it was 5%; in test [3], 3%. For the same compound, the inhibition at 1 µM in test [2] was 15%.
`Cc1cc2c3c(c1)c1c(n3CC(C)(c3ccc(C)nc3)OC2C)CCN(C)C1` (centres unmarked) [Compound 164]: the “Adrenergic (0.1 μM) a1A, percentage inhibition of ligand binding” value in test [4] is given as −7%. Besides, the “Serotonin (0.1 μM) 5-HT5A, percentage inhibition of ligand binding” value in test [5] is given as −22%. For the same compound, in test [1], the “Serotonin (0.1 μM) 5-HT2C, percentage inhibition of ligand binding” value came out at 2%. For the same compound, the “Dopamine (1 μM) D2L, percentage inhibition of ligand binding” value in test [2] is 3%. In test [3], the “Serotonin (0.1 μM) 5-HT2A, percentage inhibition of ligand binding” value stood at 0%.
On to `Cc1cc2c3c(c1)c1c(n3CC(C)(c3ccncc3)OC(C)C2)CCN(C)C1` (centres unmarked) [Compound 165], for which the inhibition at 0.1 µM in test [4] worked out at 11%; in test [5], 16%; in test [1], 14%; in test [3], 12%. In test [2], the inhibition at 1 µM worked out at 10%.

The term inhibition denotes the change of the read-out against control, counted positive when it falls.
